Assay [1] deals with atherosclerotic plaque in Ldlr−/− BMT mice. The experiment in a line: Aortic root plaque size in high fat/high cholesterol diet-fed competitive-BMT Ldlr−/− mice. The format is in vivo. Conditions: continuous infusion 5 mg/kg/day via subcutaneous osmotic pumps. As to the method: Aortic root plaque size in high fat/high cholesterol diet-fed 10% KO-BMT mice and 10% WT-BMT. […] Representative images of hematoxylin/eosin-stained sections are shown; plaques are delineated by discontinuous lines (scale bar: 100 μm). Statistical significance was evaluated by 2-way ANOVA with Tukey multiple comparison test (*p<0.05, […]).
Lethally irradiated Ldlr−/− recipients were transplanted with suspensions of BM cells containing 10% CD45.2+ Tet2−/− cells and 90% CD45.1+ Tet2+/+ cells (10% KO-BMT mice), or 10% CD45.2+ Tet2+/+ cells and 90% CD45.1+ Tet2+/+ cells (10% WT-BMT mice) (Fig. S1). BM cells were isolated from femurs and tibias of donor mice after euthanasia. Donor CD45.2+ cells were obtained from Tet2+/+ or −/− littermates; donor CD45.1+ cells were obtained from Pep Boy mice. Recipient Ldlr−/− mice were irradiated in a pie cage (Braintree Scientific) to limit mobility and ensure equal dose of irradiation and were exposed to two radiation doses of 550 rad three hours apart using an X-RAD 320 Biological Irradiator. After the second irradiation, each recipient mouse was injected with 10^7 BM cells i.v. Sterilized caging, food and water were provided during the first 14 days post-transplant and water was supplemented with antibiotics (Sulfatrim). […]
Mice were euthanized and aortas were removed after in situ perfusion with phosphate-buffered saline (PBS) injected through the left ventricle of the heart. […] All histological sections comprising the aortic root as determined by the location of the aortic valve leaflets were cut at a thickness of 6 μm. An operator who was blinded to genotype quantified plaque size in aortic root sections by computer-assisted morphometric analysis of microscopy images acquired on a KEYENCE BZ-9000 microscope. For each mouse, atherosclerosis plaque size in aortic root cross-sections was calculated as the average of 5 independent sections separated by ˜18 μm.

For assay [2], the system named is heart failure by chronic ischemia (LAD ligation) in mice. The experiment in a line: Post-infarction remodeling after permanent LAD ligation in BMT mice. The format is in vivo. An excerpt:
21A. Scheme of the experimental study. Mice underwent partial (10%) bone marrow reconstitution with Tet2-deficient cells or WT cells following lethal irradiation. After 8 weeks of recovery, mice underwent permanent LAD ligation. PBS or MCC-950 infusion by osmotic pump was initiated 1 week after LAD ligation for 4 weeks. 21B. […] 21C.
(§1) Heart failure was induced in C57/B16 mice by pressure overload, achieved by transverse aortic constriction (TAC), or by chronic ischemia, induced by the permanent ligation of the left anterior descending (LAD) artery (FIGS. 19, 20). In both models, Tet2-deficient hematopoietic cells were used to partially reconstitute the bone marrow of lethally irradiated mice, leading to their clonal expansion. Alternatively, Tet2 was specifically ablated in myeloid cells using Cre recombinase expressed from the LysM promoter. In mice, undergoing LAD ligation, Tet2-deficiency led to worsened cardiac remodeling and function regardless of the means of Tet2 ablation. In mice undergoing TAC, Tet2-deficiency led to greater hypertrophy and systolic dysfunction regardless of the means of Tet2 ablation.

The test system of assay [3] is heart failure by pressure overload (TAC) in mice. The experiment in a line: Pressure overload (TAC) heart failure in BMT mice. The format is in vivo.
From the text: 22A. Scheme of the experimental study. Mice underwent partial (10%) bone marrow reconstitution with Tet2-deficient cells or WT cells following lethal irradiation. After 8 weeks of recovery, mice underwent permanent TAC surgery to produce pressure overload on the heart. 22B. […] 22C. […] 22D. […] LVPWTd=left ventricle posterior wall thickness at diastole, FS=fractional shortening. 22E.
as §1

Another assay has as its system IL-1β expression. The experiment in a line: qRT-PCR of IL-1β expression in LPS/IFNγ-treated peritoneal macrophages. The format is cell-based, mouse. Particulars: 8 hours 10 ng/mL LPS and 2 ng/ml IFNγ; 0.5 μM TSA. As to the method:
(§2) 14A. qRT-PCR analysis of IL-1β expression in peritoneal macrophages isolated from Tet2−/− or +/+ mice (n=3 mice/genotype) and treated for 8 hours with 10 ng/mL LPS and 2 ng/ml IFNγ in the absence or presence of 0.5 μM Trichostatin A (TSA). 14B. ChIP analysis of H3 acetylation in the IL-1β promoter of macrophages isolated from Tet2−/− or +/+ mice (n=6/genotype) after 10 hours of LPS/IFNγ treatment. 14C. qRT-PCR analysis of IL-6 expression in peritoneal macrophages isolated from Tet2−/−/ mice or +/+ controls (n=3 mice/genotype) and treated for 8 hours with 10 ng/mL LPS and 2 ng/ml IFNγ in the absence or presence of 0.5 μM TSA. 14D. […]
(§3) Thioglycollate-elicited macrophages were obtained from the peritoneal cavity of mice 4 days after intraperitoneal injection of 1 ml of aged 4% Brewer's thioglycollate broth (BD Difco). […] Cell cycle progression and apoptosis of cultured macrophages was evaluated by flow cytometry analysis of DNA content. […] For analysis of apoptosis induced by treatment with 7-ketocholesterol (Sigma), hypodiploid (SubG1) cells were quantified using with FLOWJO Software. Uptake of fluorescent dil-conjugated oxidized LDL (Alfa Aesar) was evaluated by flow cytometry analysis. […]
(§4) Total RNA from tissues and cultured cells was isolated using QIAZOL reagent and RNEASY kits (QIAGEN). […] Results were analyzed with the ΔΔCt method. […]
For orientation: In qPCR the cycle at which signal appears reflects the starting amount.

In a further assay the test system is IL-6 expression. The experiment in a line: qRT-PCR of IL-6 expression in LPS/IFNγ-treated peritoneal macrophages. The format is cell-based, mouse. Conditions: 8 hours 10 ng/mL LPS and 2 ng/ml IFNγ; 0.5 μM TSA. As to the method: as §2, §3, §4
The subject of the next assay is TNF expression. The experiment in a line: qRT-PCR of TNF expression in LPS/IFNγ-treated peritoneal macrophages. The format is cell-based, mouse. Conditions: HDAC inhibition with TSA in macrophages.
From the text: Although many details of its role in regulating chromatin architecture remain unknown, Tet2 has emerged as a multifaceted epigenetic regulator that is able to facilitate both transcription activation and repression depending on the molecular and cellular context. Given that Tet2 loss-of-function is associated with increased IL-1β gene expression, experiments were focused on potential mechanisms of Tet2-mediated transcriptional repression in macrophages.
as §3, with “Difco). Macrophages were allowed to adhere for 4 hours and cultured in RPMI medium supplemented with antibiotics and 10% FBS (PERFORMANCE PLUS FBS, Gibco).” for “Difco).”
as §4

Where [4] appears, read: mice reconstituted with Tet2-knockout bone marrow, after pressure overload.

With `CC(C)(O)c1coc(S(=O)(=O)NC(=O)Nc2c3c(cc4c2CCC4)CCC3)c1` [MCC950], the “decrease of atherosclerotic plaque size” value in assay [1] (10% KO-BMT mice) is listed as about 50%. Moreover, in assay [1] (10% WT-BMT controls, nonstatistically significant), the “reduction of atherosclerotic plaque size” value was 20%. In addition, in assay [1], the “difference in aortic plaque size between chimeric (10% KO-BMT) and nonchimeric control mice” value was “eliminated”. Besides, the “differences in cardiac parameters between Tet2-deficient and WT conditions” value in assay [2] (5 week time point post-LAD ligation) is reported as “eliminates the differences in cardiac parameters”. For the same molecule, the “development of heart failure” value in assay [2] (LAD ligation model (FIG. 21)) was “protected against the development of heart failure”. Further, the “cardiac remodeling, echocardiographic ejection fraction (EF)” value in assay [2] (Tet2-KO and wild-type bone marrow, osmotic pump infusion from 1 week after LAD ligation for 4 weeks) is “protects against adverse cardiac remodeling”. Moreover, the “differences in cell size between Tet2-deficient and WT conditions” value in assay [2] (after LAD ligation) is reported as “eliminates the differences in cell size”. Moreover, the “cardiac myocyte hypertrophy after LAD ligation” value in assay [2] (mice reconstituted with Tet2-KO and wild-type bone marrow) is recorded as “inhibits the increase in cardiac myocyte hypertrophy”. In addition, in assay [3] (TAC model (FIG. 22)), the “development of heart failure” value is listed as “protected against the development of heart failure”. In assay [3] (after pressure overload), the “difference in cardiac fibrosis between Tet2-deficient and WT conditions” value is given as “eliminates the difference in this parameter”; the “difference in myocyte CSA between Tet2-deficient and WT conditions” value was “eliminates the difference in this parameters”; the “differences in HW and LW between Tet2-deficient and WT conditions” value is “eliminates the differences in these parameters”; the “differences in echocardiographic parameters between Tet2-deficient and WT conditions” value is “eliminates the differences in the echocardiographic parameters”. The “heart weight (HW) and wet lung weight (LW) adjusted by tibia length (TL)” value in assay [3] (after pressure overload, both strains of mice) was “ameliorates the increase of cardiac and lung mass”. The “myocyte cross-sectional area (CSA)” value in assay [3] (after pressure overload, wild type and hematopoietic Tet2-KO mice) was “inhibits hypertrophy”. In assay [3] (setting [4]), the “cardiac fibrosis (Picro sirius staining)” value is on record as “can be reversed” and the “deterioration of cardiac function (echocardiographic parameters, LVPWTd, FS)” value is listed as “can be reversed”.
As to `CC(/C=C/C(=O)NO)=C\[C@@H](C)C(=O)c1ccc(N(C)C)cc1` [Trichostatin A], in the assay with IL-1β expression, the “IL-1β expression (qRT-PCR)” value is “increased IL-1β expression”; the “IL-1β expression differences between Tet2-deficient and WT genotypes” value is “abolished expression differences”. In the assay with IL-6 expression, the “IL-6 expression differences between genotypes” value was “did not affect differences between genotypes” and the “IL-6 transcript expression (qRT-PCR)” value is recorded as “reduced transcript expression”. The TNF transcript expression result with TNF expression is reported as “reduced transcript expression”.

(Values after patent US10041044B2, “Age-associated clonal hematopoiesis accelerates cardio-metabolic disease development” (TRUSTEES OF BOSTON UNIVERSITY, priority 2016, dated 2018).)
